Assay results as given in patent US20100179093A1, “Neoropeptide-2-Receptor (Y-2R) Agonists” (priority 2008, published 2010).

What was measured:
hypothalamic slices = hypothalamic slices in vitro; cited from earlier work
Y1R = molecular target: T1, Y1R (Homo sapiens, UniProt P25929); experiment: CaFlux Assay (FLIPR), Y1R; type: cell-based
T1 sequence (P25929 1-384): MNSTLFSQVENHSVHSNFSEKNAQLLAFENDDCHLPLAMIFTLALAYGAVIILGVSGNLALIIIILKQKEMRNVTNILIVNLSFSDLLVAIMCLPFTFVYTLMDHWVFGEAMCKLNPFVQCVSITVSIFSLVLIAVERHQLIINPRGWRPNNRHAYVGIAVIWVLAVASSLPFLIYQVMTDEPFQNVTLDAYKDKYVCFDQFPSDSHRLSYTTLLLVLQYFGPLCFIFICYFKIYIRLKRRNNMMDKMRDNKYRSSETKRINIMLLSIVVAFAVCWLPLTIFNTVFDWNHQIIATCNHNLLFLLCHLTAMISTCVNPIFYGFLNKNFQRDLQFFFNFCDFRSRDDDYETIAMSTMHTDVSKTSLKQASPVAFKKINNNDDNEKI

Y4R = Y4R (Homo sapiens, UniProt P50391); experiment: CaFlux Assay (FLIPR), Y4R; type: cell-based
Y4R, sequence (P50391 whole entry): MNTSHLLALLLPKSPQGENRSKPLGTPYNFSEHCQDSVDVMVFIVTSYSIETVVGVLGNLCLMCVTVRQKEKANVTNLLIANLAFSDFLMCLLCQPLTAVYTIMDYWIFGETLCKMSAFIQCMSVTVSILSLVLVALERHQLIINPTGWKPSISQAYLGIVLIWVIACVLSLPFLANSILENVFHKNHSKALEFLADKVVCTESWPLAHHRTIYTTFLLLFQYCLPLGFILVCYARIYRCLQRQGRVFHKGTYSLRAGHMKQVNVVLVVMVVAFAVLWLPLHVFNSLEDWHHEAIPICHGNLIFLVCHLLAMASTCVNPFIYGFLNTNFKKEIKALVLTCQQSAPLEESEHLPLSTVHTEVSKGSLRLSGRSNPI

Y5R = molecular target: T2, Y5R (Homo sapiens, UniProt Q15761); experiment: CaFlux Assay (FLIPR), Y5R; type: cell-based; settings: for Emax: read-out: Y5R FLIPR, percentage in parentheses under the EC50;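 as to Emax: percent of the maximal response of the positive control agonist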
T2 sequence (Q15761 1-445): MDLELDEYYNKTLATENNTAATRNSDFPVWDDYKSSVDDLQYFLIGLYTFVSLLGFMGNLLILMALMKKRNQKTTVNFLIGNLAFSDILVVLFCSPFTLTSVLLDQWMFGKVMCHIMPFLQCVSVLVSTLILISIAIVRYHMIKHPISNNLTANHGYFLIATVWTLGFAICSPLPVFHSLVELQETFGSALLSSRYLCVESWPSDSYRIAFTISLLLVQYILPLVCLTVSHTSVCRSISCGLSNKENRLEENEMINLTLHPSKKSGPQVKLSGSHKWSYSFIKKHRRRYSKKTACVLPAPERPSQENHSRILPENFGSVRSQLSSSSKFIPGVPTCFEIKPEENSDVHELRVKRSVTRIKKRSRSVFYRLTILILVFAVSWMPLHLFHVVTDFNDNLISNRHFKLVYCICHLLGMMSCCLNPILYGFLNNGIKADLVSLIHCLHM

hNPY2R [1] = molecular target: T3, hNPY2R (Homo sapiens, UniProt P49146); experiment: cAMP Agonist Assay, HEK293/hNPY2R cells; type: cell-based; design: expressed in transfected cells; host or cells: HEK293/hNPY2R (G418 selection)
T3 sequence (P49146 1-381): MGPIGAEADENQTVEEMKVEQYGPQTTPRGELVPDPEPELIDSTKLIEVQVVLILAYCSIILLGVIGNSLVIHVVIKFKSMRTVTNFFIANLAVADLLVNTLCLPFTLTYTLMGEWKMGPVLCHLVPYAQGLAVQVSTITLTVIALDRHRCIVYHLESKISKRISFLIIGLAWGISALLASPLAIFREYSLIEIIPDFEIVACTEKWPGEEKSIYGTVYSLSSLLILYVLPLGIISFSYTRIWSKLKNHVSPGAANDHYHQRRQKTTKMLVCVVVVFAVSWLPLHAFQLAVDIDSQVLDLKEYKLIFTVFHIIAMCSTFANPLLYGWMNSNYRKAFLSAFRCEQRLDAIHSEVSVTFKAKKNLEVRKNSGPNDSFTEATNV
Method: On the first day, medium was discarded, and the monolayer cells were washed with 10 mL PBS per flask (T225). […] The flask was gently tapped and the cell suspension was pooled. Each flask was rinsed with 10 mL plating medium and centrifuged at 1000 rpm for 5 min. The suspension was pooled and counted. The suspension was resuspended in plating medium at a density of 2.0×10^5 cells/mL for HEK293/hNPY2R. 50 microliters of cells (HEK293/hNPY2R-10,000 cells/well) were transferred into the 384-well plate using Multi-drop dispenser. The plates were incubated at 37° C. overnight. […] The media and reagents were allowed to come to room temperature. Before the dilutions were prepared, the stock solution of stimulating compound in dimethyl sulphoxide (DMSO, Sigma, cat #D2650) was allowed to warm up to 32 C for 5-10 min. […] The cell medium was tapped off with a gentle inversion of the cell plate on a paper towel. 50 μL of stimulation medium was placed per well (each concentration done in four replicates). The plates were incubated at room temperature for 30 min, and the cells were checked under a microscope for toxicity. After 30 minutes of treatment, the stimulation media was discarded and 50 mL/well of Assay Lysis Buffer (provided in the Tropix kit) was added. The plates were incubated for 45 min@37° C. 20 μL of the lysate was transferred from stimulation plates into the pre-coated antibody plates (384-well) from the Tropix kit. 10 μL of AP conjugate and 20 μL of anti-cAMP antibody was added. The plates were incubated at room temperature while shaking for 1 hour. The plates were then washed 5 times with Wash Buffer, 70 μL per well for each wash. The plates were tapped to dry. 30 μL/well of CSPD/Saphire-II RTU substrate/enhancer solution was added and incubated for 45 min @ RT (shake). Signal for 1 sec/well in a Luminometer.

hNPY2R [2] = molecular target: T3, hNPY2R; experiment: CaFlux Assay (FLIPR), Y2R; type: cell-based; design: expressed in transfected cells; host or cells: HEK-293 stably expressing G protein chimera Gaqi9

SMILES	NPY release (hypothalamic slices)	EC50 (Y1R) [nM]	EC50 (Y4R) [nM]	EC50 (Y5R) [nM]	Emax (Y5R) [%]	EC50 (hNPY2R [1]) [nM]	EC50 (hNPY2R [2]) [nM]
N=C(N)NCCC[C@H](NC(=O)CC1(CC(=O)N2CCN(C3c4ccccc4NC(=O)c4ccccc43)CC2)CCCC1)C(=O)NCCn1c(=O)n(-c2ccccc2)n(-c2ccccc2)c1=O (stereo partly shown) [BIIE0246]	increases NPY release						
CCCCCCCCCCCCCCCC(=O)NCCOCCOCCNC(=O)CCC(=O)NCCCC[C@H](NC(=O)[C@@H](N)[C@@H](C)CC)C(=O)N1CCN(c2ccc3ncn(CC(=O)N[C@@H](CCCNC(=N)N)C(=O)N[C@@H](Cc4c[nH]cn4)C(=O)N[C@@H](Cc4ccc(O)cc4)C(=O)N[C@@H](CC(C)C)C(=O)N[C@@H](CC(N)=O)C(=O)N[C@@H](Cc4c[nH]c5ccccc45)C(=O)N[C@H](C(=O)N[C@H](C(=O)N[C@@H](CCCNC(=N)N)C(=O)N[C@@H](CCC(N)=O)C(=O)N(C)[C@@H](CCCNC(=N)N)C(=O)N[C@@H](Cc4ccc(O)cc4)C(N)=O)[C@@H](C)O)C(C)C)c(=O)c3c2)CC1 [Example 36]		> 5000	> 5000	481	73	0.15	0.138
CCCCCCCCCCCCCCCCCCCC(=O)NCCOCCOCCNC(=O)CCC(=O)NCCCC[C@H](NC(=O)[C@@H](N)[C@@H](C)CC)C(=O)N1CCN(c2ccc3ncn(CC(=O)N[C@@H](CCCNC(=N)N)C(=O)N[C@@H](Cc4c[nH]cn4)C(=O)N[C@@H](Cc4ccc(O)cc4)C(=O)N[C@@H](CC(C)C)C(=O)N[C@@H](CC(N)=O)C(=O)N[C@@H](Cc4c[nH]c5ccccc45)C(=O)N[C@H](C(=O)N[C@H](C(=O)N[C@@H](CCCNC(=N)N)C(=O)N[C@@H](CCC(N)=O)C(=O)N(C)[C@@H](CCCNC(=N)N)C(=O)N[C@@H](Cc4ccc(O)cc4)C(N)=O)[C@@H](C)O)C(C)C)c(=O)c3c2)CC1 [Example 37]		> 5000	> 5000	77.9	48	0.13	0.367
CCCCCCCCCCCCCCCC(=O)NCCOCCNC(=O)CCC(=O)NCCCC[C@H](NC(=O)[C@@H](N)[C@@H](C)CC)C(=O)N1CCN(c2ccc3ncn(CC(=O)N[C@@H](CCCNC(=N)N)C(=O)N[C@@H](Cc4c[nH]cn4)C(=O)N[C@@H](Cc4ccc(O)cc4)C(=O)N[C@@H](CC(C)C)C(=O)N[C@@H](CC(N)=O)C(=O)N[C@@H](Cc4c[nH]c5ccccc45)C(=O)N[C@H](C(=O)N[C@H](C(=O)N[C@@H](CCCNC(=N)N)C(=O)N[C@@H](CCC(N)=O)C(=O)N(C)[C@@H](CCCNC(=N)N)C(=O)N[C@@H](Cc4ccc(O)cc4)C(N)=O)[C@@H](C)O)C(C)C)c(=O)c3c2)CC1 [Example 38]		> 5000	> 5000	644	83	0.17	0.003
CCCCCCCCCCCCCCCCCCCC(=O)NCCOCCNC(=O)CCC(=O)NCCCC[C@H](NC(=O)[C@@H](N)[C@@H](C)CC)C(=O)N1CCN(c2ccc3ncn(CC(=O)N[C@@H](CCCNC(=N)N)C(=O)N[C@@H](Cc4c[nH]cn4)C(=O)N[C@@H](Cc4ccc(O)cc4)C(=O)N[C@@H](CC(C)C)C(=O)N[C@@H](CC(N)=O)C(=O)N[C@@H](Cc4c[nH]c5ccccc45)C(=O)N[C@H](C(=O)N[C@H](C(=O)N[C@@H](CCCNC(=N)N)C(=O)N[C@@H](CCC(N)=O)C(=O)N(C)[C@@H](CCCNC(=N)N)C(=O)N[C@@H](Cc4ccc(O)cc4)C(N)=O)[C@@H](C)O)C(C)C)c(=O)c3c2)CC1 [Example 39]		> 5000	> 5000	285	50	0.21	0.073
CCCCCCCCCCCCCCCC(=O)N[C@@H](CO)C(=O)N[C@@H](CO)C(=O)NCCCC[C@H](NC(=O)[C@@H](N)[C@@H](C)CC)C(=O)N1CCN(c2ccc3ncn(CC(=O)N[C@@H](CCCNC(=N)N)C(=O)N[C@@H](Cc4c[nH]cn4)C(=O)N[C@@H](Cc4ccc(O)cc4)C(=O)N[C@@H](CC(C)C)C(=O)N[C@@H](CC(N)=O)C(=O)N[C@@H](Cc4c[nH]c5ccccc45)C(=O)N[C@H](C(=O)N[C@H](C(=O)N[C@@H](CCCNC(=N)N)C(=O)N[C@@H](CCC(N)=O)C(=O)N(C)[C@@H](CCCNC(=N)N)C(=O)N[C@@H](Cc4ccc(O)cc4)C(N)=O)[C@@H](C)O)C(C)C)c(=O)c3c2)CC1 [Example 40]		> 5000	> 5000	602	85	0.18	0.36
CCCCCCCCCCCCCCCCCCCC(=O)N[C@@H](CO)C(=O)N[C@@H](CO)C(=O)NCCCC[C@H](NC(=O)[C@@H](N)[C@@H](C)CC)C(=O)N1CCN(c2ccc3ncn(CC(=O)N[C@@H](CCCNC(=N)N)C(=O)N[C@@H](Cc4c[nH]cn4)C(=O)N[C@@H](Cc4ccc(O)cc4)C(=O)N[C@@H](CC(C)C)C(=O)N[C@@H](CC(N)=O)C(=O)N[C@@H](Cc4c[nH]c5ccccc45)C(=O)N[C@H](C(=O)N[C@H](C(=O)N[C@@H](CCCNC(=N)N)C(=O)N[C@@H](CCC(N)=O)C(=O)N(C)[C@@H](CCCNC(=N)N)C(=O)N[C@@H](Cc4ccc(O)cc4)C(N)=O)[C@@H](C)O)C(C)C)c(=O)c3c2)CC1 [Example 41]		> 5000	> 5000	1830	37	0.11	0.165
CCCCCCCCCCCCCCCC(=O)N[C@H](C(=O)N[C@H](C(=O)NCCCC[C@H](NC(=O)[C@@H](N)[C@@H](C)CC)C(=O)N1CCN(c2ccc3ncn(CC(=O)N[C@@H](CCCNC(=N)N)C(=O)N[C@@H](Cc4c[nH]cn4)C(=O)N[C@@H](Cc4ccc(O)cc4)C(=O)N[C@@H](CC(C)C)C(=O)N[C@@H](CC(N)=O)C(=O)N[C@@H](Cc4c[nH]c5ccccc45)C(=O)N[C@H](C(=O)N[C@H](C(=O)N[C@@H](CCCNC(=N)N)C(=O)N[C@@H](CCC(N)=O)C(=O)N(C)[C@@H](CCCNC(=N)N)C(=O)N[C@@H](Cc4ccc(O)cc4)C(N)=O)[C@@H](C)O)C(C)C)c(=O)c3c2)CC1)[C@@H](C)O)[C@@H](C)O [Example 42]		> 5000	> 5000	193	46	0.14	0.018
CCCCCCCCCCCCCCCCCCCC(=O)N[C@H](C(=O)N[C@H](C(=O)NCCCC[C@H](NC(=O)[C@@H](N)[C@@H](C)CC)C(=O)N1CCN(c2ccc3ncn(CC(=O)N[C@@H](CCCNC(=N)N)C(=O)N[C@@H](Cc4c[nH]cn4)C(=O)N[C@@H](Cc4ccc(O)cc4)C(=O)N[C@@H](CC(C)C)C(=O)N[C@@H](CC(N)=O)C(=O)N[C@@H](Cc4c[nH]c5ccccc45)C(=O)N[C@H](C(=O)N[C@H](C(=O)N[C@@H](CCCNC(=N)N)C(=O)N[C@@H](CCC(N)=O)C(=O)N(C)[C@@H](CCCNC(=N)N)C(=O)N[C@@H](Cc4ccc(O)cc4)C(N)=O)[C@@H](C)O)C(C)C)c(=O)c3c2)CC1)[C@@H](C)O)[C@@H](C)O [Example 43]		> 5000	> 5000	243	23	0.26	0.074
